Measurements: patent publication US6495525B1, “VLA-4 inhibitor: oMePUPA-V” (Biogen, Inc., priority 1998, dated 2002)

Assays:
[1] = test system: Ascaris suum-sensitive sheep; test: Ovine model of allergic pulmonary inflammation (Ascaris suum allergen challenge); format: in vivo; conditions: for EAR (ΔSLR × h): 0-4 h; for LAR (ΔSLR × h): 4-8 h; for PC400 (Post/Pre): carbachol 24 h post-challenge; for early and late airway response, hyperresponsiveness to carbachol (in words): aerosol 2 h before challenge
Source text: Allergic sheep weighing between 27-50 kg were used. […] The sheep were conscious and were restrained in a modified shopping cart in the prone position with their heads immobilized. After topical anesthesia of the nasal passages with 2% lidocaine, a balloon catheter was advanced through one nostril into the lower esophagus. The animals were intubated with a cuffed endotracheal tube through the other nostril using a flexible fiberoptic bronchoscope as a guide. All protocols used in this study were approved by the Mount Sinai Medical Center Animal Research Committee, which is responsible for assuring the humane care and use of experimental animals. Pleural pressure was estimated using an esophageal balloon catheter (filled with 1 mL of air), which was positioned 5 to 10 cm from the gastroesophageal-junction. In this position, the end expiratory pleural pressure ranged between −2 to −5-cmH2O. Once the balloon was placed, it was secured so that it remained in the same position for the duration of the experiment. Lateral pressure in the trachea was measured with a sidehole catheter (inner diameter, 2.5 mm) advanced through and positioned distal to the tip of the endotracheal tube.
The tracheal and pleural pressure catheters were connected to a differential pressure transducer (MP45, Validyne, Northridge, Calif.) for the measurement of transpulmonary pressure which was defined as the difference between tracheal and pleural pressure. Airflow was measured by connecting the proximal end of the endotracheal tube to a pneumotachograph (Fleisch, Dyna Sciences, Inc., Blue Bell, Pa.). The signals of transpulmonary pressure and flow were recorded on a multichannel physiological recorder which was linked to a 80-386 DOS Personal Computer for on-line calculation of mean pulmonary flow resistance (RL) by dividing the change in transpulmonary pressure by the change in flow at mid-tidal volume (obtained by digital integration). The mean of at least five breaths, free of swallowing artifact, was used to obtain RL in cmH2O/L/sec. Immediately after the measurement of RL, thoracic gas volume (Vtg) was measured in a constant-volume body plethysmograph to obtain specific lung resistance (SRL=RL×Vtg) in L×cmH2O/L/sec.
All liquid-dose aerosols were generated using a disposable medical air-jet nebulizer (Raindrop®, Puritan Bennett, Lenexa, Kans.) that provided an aerosol with a mass median aerodynamic diameter of 3.2 μm as determined by an Andersen cascade impactor. The nebulizer was connected to a dosimeter system, consisting of a solenoid valve and a source of compressed air (20 psi). The output of the nebulizer was directed into a plastic T-piece, one end of which was connected to the inspiratory port of a piston respirator (Harvard Apparatus, S. Natick, Mass.). The solenoid valve was activated for one second at the beginning of the inspiratory cycle of the respirator. Aerosols were delivered at a tidal volume of 500 mL and a rate of 20 breaths per minute. To assess bronchial responsiveness, cumulative concentration response curves to carbachol were performed by measuring SRL immediately after inhalation of buffer and after each consecutive administration of 10 breaths of increasing concentrations of carbachol (0.25, 0.5, 1.0, 2.0 and 4.0% w/v in buffered saline). The provocation test was discontinued when SRL increased over 400% from the post-saline value or after the highest carbachol concentration had been administered. Bronchial responsiveness was assessed by determining the cumulative carbachol concentration (in breath units) that increased SRL by 400% over the post-saline value (PC400) by interpolation from the dose response curve. One breath unit (BU) was defined as one breath of a 1% w/v carbachol nebulized solution.
Doses of oMePUPA-V were dissolved in either ethanol:normal saline 1:2, ethanol:200 mM sodium phosphate 1:5 or Tris buffer. When using Tris, any required dilution was performed using normal saline. […]

VLA-4 = VLA-4 (Homo sapiens, UniProt P05556+P13612); test: VCAM-Ig Competitive Binding Assay on human PBLs; design: endogenous in cells; conditions: Mn+2
Source text: PBLs, were isolated from peripheral blood of humans, sheep and dogs using methods described for sheep PBL (Abraham, W. M. et al. J. Clin. Invest. 93:776-787, 1994). The VCAM-Ig-AP Competitive Binding Assay was used to compare the binding of oMePUPA-V to these different cell types.

human ACE = molecular target: T1, human ACE (Homo sapiens, UniProt P12821); test: ACE protease activity (Cerep, HUVEC, 3H-HGG conversion); format: biochemical
T1 construct: The source of ACE proteases was human endothelial cells (HUVEC); host or cells: HUVEC (human endothelial cells)
Source text: The source of ACE proteases was human endothelial cells (HUVEC). ^3H-HGG, added to HUVEC, was converted to ^3H-hippuric acid and glycylglycine by ACE.

gpIIbIIIa = molecular target: T2, gpIIbIIIa (Homo sapiens, UniProt P05106+P08514); test: Platelet aggregation induced by ADP in platelet rich plasma; format: cell-based
T2 construct: from tissue; host or cells: platelet rich plasma
Protocol: Activity against gpIIbIIIa was assessed by means of standard platelet aggregometry using platelet rich plasma. ADP was used to initiate aggregation in the presence of plasma where Ca^+2 and Mg^+2 are the major divalent cations. GRGDSP @ 100 ug/mL was used as a positive control.

[2] = 0.01 mg aerosol, EtOH:NS, 2 hours prior to allergen challenge
[3] = 0.03 mg aerosol, EtOH:NS, 2 hours prior to allergen challenge
[4] = 0.03 mg once daily for 4 days, EtOH:NS, challenge 24 h after last dose
[5] = 0.03 mg once daily for 4 days, Tris:NS, challenge 24 h after last dose
[6] = 0.10 mg aerosol, EtOH:NS, 2 hours prior to allergen challenge
[7] = 1.00 mg aerosol, EtOH:PBS, 2 hours prior to allergen challenge
[8] = 3.00 mg aerosol, EtOH:PBS, 2 hours prior to allergen challenge

T2 sequence (P08514 32-887 limits assumed): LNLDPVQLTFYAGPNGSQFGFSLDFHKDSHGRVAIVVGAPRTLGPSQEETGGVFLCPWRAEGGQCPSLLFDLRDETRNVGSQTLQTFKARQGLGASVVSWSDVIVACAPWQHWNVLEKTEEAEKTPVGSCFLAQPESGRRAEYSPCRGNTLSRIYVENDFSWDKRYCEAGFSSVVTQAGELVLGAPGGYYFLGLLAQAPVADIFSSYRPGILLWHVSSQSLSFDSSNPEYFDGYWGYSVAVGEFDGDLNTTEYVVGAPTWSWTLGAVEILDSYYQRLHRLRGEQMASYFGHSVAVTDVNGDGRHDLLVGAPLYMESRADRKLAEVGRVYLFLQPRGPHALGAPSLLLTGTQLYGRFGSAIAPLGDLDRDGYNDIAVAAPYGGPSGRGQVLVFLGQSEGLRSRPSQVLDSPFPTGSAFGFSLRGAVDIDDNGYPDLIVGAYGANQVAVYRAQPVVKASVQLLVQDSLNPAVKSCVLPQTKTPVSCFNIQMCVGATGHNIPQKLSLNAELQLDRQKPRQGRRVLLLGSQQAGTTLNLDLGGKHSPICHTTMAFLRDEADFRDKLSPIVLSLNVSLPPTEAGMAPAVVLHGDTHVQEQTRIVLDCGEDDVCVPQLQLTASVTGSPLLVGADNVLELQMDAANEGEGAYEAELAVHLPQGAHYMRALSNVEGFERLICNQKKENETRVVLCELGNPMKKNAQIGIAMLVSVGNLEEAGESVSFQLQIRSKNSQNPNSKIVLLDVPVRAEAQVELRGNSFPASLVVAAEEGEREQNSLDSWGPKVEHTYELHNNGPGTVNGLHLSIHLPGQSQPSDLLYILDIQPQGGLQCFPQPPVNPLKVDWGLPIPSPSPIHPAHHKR
T2 sequence (P08514 891-1039 partner limits assumed): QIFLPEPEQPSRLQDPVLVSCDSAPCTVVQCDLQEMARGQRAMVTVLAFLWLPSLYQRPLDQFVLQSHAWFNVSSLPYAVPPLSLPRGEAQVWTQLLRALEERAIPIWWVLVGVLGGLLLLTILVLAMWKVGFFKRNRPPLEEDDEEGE
T2 sequence (P05106 27-788): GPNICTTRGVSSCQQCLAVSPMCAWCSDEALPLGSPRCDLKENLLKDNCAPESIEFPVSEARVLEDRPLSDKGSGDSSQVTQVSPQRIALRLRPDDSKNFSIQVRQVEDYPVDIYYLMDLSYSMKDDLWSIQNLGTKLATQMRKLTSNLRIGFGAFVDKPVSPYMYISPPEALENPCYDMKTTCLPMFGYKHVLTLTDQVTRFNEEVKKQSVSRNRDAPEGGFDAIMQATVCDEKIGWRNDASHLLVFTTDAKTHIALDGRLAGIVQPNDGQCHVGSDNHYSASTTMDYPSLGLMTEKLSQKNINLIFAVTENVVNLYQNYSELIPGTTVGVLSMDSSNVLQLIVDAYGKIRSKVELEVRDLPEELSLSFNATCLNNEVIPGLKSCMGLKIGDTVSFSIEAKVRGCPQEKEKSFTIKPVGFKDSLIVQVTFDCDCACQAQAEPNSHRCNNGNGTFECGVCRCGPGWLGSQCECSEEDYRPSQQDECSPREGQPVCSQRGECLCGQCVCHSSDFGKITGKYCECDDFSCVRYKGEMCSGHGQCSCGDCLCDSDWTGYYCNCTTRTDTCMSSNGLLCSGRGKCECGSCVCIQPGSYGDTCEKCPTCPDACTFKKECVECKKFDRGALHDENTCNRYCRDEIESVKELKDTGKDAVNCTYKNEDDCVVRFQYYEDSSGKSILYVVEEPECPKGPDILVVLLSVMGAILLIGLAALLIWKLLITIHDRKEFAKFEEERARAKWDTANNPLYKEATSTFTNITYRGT
T1 sequence (P12821 30-1306): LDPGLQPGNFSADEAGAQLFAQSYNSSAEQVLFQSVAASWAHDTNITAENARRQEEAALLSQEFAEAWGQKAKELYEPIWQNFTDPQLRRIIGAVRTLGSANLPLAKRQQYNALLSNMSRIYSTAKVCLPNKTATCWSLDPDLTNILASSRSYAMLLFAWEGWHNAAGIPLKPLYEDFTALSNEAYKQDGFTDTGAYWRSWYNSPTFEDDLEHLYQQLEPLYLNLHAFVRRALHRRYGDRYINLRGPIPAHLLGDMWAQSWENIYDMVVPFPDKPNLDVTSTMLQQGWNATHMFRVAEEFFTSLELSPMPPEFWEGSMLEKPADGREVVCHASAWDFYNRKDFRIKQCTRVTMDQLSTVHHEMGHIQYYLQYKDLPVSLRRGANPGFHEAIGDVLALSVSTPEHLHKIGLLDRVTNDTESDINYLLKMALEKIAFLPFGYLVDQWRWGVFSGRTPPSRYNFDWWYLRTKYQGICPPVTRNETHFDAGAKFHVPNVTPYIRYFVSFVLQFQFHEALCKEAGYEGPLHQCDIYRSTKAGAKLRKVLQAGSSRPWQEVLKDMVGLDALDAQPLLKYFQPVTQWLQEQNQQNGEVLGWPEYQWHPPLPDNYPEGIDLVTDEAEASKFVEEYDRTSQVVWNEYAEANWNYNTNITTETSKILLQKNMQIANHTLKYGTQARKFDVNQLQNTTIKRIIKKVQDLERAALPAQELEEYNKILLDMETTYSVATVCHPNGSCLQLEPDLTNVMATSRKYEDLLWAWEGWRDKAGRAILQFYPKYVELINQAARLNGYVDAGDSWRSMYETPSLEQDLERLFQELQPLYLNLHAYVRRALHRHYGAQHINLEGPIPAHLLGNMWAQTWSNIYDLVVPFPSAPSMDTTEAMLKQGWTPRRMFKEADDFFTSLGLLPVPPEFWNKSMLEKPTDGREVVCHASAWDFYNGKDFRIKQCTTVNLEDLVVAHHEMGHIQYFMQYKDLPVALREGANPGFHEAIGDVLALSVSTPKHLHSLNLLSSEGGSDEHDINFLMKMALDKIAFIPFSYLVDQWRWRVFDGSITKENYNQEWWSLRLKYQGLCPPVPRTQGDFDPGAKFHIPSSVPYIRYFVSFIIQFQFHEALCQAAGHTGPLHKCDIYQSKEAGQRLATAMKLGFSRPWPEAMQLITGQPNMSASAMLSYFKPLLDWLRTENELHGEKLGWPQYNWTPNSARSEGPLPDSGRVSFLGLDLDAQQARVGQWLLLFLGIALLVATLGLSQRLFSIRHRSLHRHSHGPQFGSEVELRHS
VLA-4, sequence (P13612 34-1032): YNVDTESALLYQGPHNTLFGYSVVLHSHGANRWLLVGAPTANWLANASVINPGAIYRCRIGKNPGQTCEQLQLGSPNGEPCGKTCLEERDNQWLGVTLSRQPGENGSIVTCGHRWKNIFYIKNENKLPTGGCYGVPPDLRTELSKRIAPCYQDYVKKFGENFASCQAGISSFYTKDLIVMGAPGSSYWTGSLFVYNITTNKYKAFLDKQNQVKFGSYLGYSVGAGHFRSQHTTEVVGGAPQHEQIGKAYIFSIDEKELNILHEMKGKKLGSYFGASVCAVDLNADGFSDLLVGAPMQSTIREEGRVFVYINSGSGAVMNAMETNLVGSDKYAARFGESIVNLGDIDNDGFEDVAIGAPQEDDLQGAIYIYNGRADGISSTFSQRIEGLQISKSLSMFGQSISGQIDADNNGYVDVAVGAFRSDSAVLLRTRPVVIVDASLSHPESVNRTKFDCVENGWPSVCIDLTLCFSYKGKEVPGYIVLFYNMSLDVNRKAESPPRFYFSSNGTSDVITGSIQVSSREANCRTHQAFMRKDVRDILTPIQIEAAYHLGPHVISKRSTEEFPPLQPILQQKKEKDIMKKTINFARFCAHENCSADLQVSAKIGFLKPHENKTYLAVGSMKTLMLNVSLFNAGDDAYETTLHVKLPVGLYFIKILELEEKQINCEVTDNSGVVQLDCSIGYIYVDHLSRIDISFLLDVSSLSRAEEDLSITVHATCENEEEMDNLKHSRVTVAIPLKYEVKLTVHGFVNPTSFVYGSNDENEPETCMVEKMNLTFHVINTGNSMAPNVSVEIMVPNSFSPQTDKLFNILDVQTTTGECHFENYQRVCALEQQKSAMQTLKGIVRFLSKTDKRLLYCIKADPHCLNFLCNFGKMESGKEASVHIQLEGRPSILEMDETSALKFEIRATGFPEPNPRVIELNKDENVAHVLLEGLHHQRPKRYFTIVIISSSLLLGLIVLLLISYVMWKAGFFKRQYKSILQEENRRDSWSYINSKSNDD
VLA-4, sequence (P05556 21-798): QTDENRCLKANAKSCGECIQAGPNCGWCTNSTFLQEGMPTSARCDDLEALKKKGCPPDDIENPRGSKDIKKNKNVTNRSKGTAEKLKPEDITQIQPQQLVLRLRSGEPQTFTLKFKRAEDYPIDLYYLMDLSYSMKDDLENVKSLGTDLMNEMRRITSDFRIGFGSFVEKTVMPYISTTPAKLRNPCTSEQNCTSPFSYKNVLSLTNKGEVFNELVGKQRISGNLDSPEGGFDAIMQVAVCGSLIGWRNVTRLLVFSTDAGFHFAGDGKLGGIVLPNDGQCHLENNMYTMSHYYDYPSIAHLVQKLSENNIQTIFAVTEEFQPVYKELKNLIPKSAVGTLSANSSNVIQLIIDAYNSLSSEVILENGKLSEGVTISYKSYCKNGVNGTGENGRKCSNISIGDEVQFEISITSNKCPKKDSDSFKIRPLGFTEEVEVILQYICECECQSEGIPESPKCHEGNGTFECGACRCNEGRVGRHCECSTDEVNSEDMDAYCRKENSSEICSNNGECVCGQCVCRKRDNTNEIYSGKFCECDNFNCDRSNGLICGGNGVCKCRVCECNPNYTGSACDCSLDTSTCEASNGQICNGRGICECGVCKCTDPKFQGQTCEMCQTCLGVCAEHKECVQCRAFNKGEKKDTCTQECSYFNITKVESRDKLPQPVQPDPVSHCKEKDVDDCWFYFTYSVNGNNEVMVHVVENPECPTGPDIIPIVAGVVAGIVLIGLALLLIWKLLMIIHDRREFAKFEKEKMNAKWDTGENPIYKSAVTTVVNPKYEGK

Cc1ccccc1NC(=O)Nc1ccc(CC(=O)N2CCC[C@H]2C(=O)N[C@H](C)CC(=O)O)cc1 [oMePUPA-V]
EAR (ΔSLR × h) [1, 2]: 6.87 ± 0.05 ΔSLR × h | LAR (ΔSLR × h) [1, 2]: 5.11 ± 1.46 ΔSLR × h | PC400 (Post/Pre) [1, 2]: 0.44 ± 0.04 | EAR (ΔSLR × h) [1, 3]: 10.62 ± 3.91 ΔSLR × h | LAR (ΔSLR × h) [1, 3]: 3.98 ± 0.23 ΔSLR × h | PC400 (Post/Pre) [1, 3]: 0.43 ± 0.00 | EAR (ΔSLR × h) [1, 4]: 1.53 ± 0.34 ΔSLR × h | LAR (ΔSLR × h) [1, 4]: 0.59 ± 0.16 ΔSLR × h | PC400 (Post/Pre) [1, 4]: 1.06 ± 0.04 | EAR (ΔSLR × h) [1, 5]: 1.40 ± 0.35 ΔSLR × h | LAR (ΔSLR × h) [1, 5]: 0.02 ± 0.06 ΔSLR × h | PC400 (Post/Pre) [1, 5]: 1.04 ± 0.04 | protection against EAR, LAR and hyperresponsiveness (in words) ([1]; 0.03 mg once daily for 4 days, antigen challenge 24 h after the last dose): protective | EAR (ΔSLR × h) [1, 6]: 2.54 ± 0.74 ΔSLR × h | LAR (ΔSLR × h) [1, 6]: 0.67 ± 0.17 ΔSLR × h | PC400 (Post/Pre) [1, 6]: 1.18 ± 0.11 | EAR (ΔSLR × h) [1, 7]: 2.14 ± 0.70 ΔSLR × h | LAR (ΔSLR × h) [1, 7]: 0.27 ± 0.34 ΔSLR × h | PC400 (Post/Pre) [1, 7]: 1.05 ± 0.11 | EAR (ΔSLR × h) [1, 8]: 2.47 ± 0.62 ΔSLR × h | LAR (ΔSLR × h) [1, 8]: 0.68 ± 0.07 ΔSLR × h | PC400 (Post/Pre) [1, 8]: 1.07 ± 0.08 | Minimum effective dose in sheep model, repeat-dose ([1]; daily for 4 days, antigen challenge 24 hours after the last dose): 1 µg/kg | early and late airway response, hyperresponsiveness to carbachol (in words) ([1]; doses of 0.01 and 0.03 mg): did not inhibit early or late airway response | early and late airway response, hyperresponsiveness to carbachol (in words) ([1]; doses of 0.1, 1 and 3 mg): inhibited the early airway response and maximally inhibited the late airway response | Minimum effective dose in sheep model, single dose ([1]; single nebulized dose 2 hours before antigen challenge): 3 µg/kg | IC50 (VLA-4): 6 ± 1 nM | ACE activity (human ACE): clean | inhibition of human ACE protease activity (human ACE; at 10 μM, HUVEC): no inhibition | measurable activity against gpIIbIIIa (gpIIbIIIa): > 100 µM | inhibition, platelets (IIbIIIa) fibrinogen aggregation (gpIIbIIIa; @ 100 μM, Ca+2/Mg+2): no inhibition @ | inhibition of ADP-induced platelet aggregation (in words) (gpIIbIIIa; three doses 1, 10 and 100 μM): did not inhibit
